Test results from US7211561B2, “Method for inducing selective cell death of malignant cells by activation of calcium-activated potassium channels (KCa)” (Cedars-Sinai Medical Center, priority 2001, dated 2007).
Where a name gives a salt, the structure may show the parent alone.

How the values were obtained:
[1] = system: rat and human malignant cells studied, as well as normal cells; experiment: Cell proliferation assay (WST-1, OD 450 nm), all cell lines; assay type: cell-based; conditions: data not shown
Method: Primary cell lines were prepared from human gliomas (glioblastoma multiforme [GBM] or astrocytoma) or established rat glioma cell lines (RG2, C6 and 9L) were used. Cultured human normal cell lines, brain microvessel endothelial cells (HBMVEC), or fetal astrocytes were used.
Cells (5×10^4 cells) were cultured in each well of 96-well microtiter culture plates and were allowed to achieve confluency to form a monolayer of cells in each well. For dose response studies cells were incubated with different concentrations (1–100 μg/mL) of NS-1619 or minoxidil sulfate for 4 hours at 37° C. in a CO2 (5%) incubator. Cells washed twice carefully with respective medium, and allowed to incubate overnight at 37° C. under 5% CO2. The following day, cells were incubated with WST-1 reagent (Boehringer Mannheim) at 37° C. in a CO2 (5%) incubator for 60–90 minutes, and optical density at 450 nm was measured with a 96-well plate reader. The magnitude of OD indicated the number of viable cells, greater the OD, higher the number of viable cells, correlated a standard curve of cell numbers.

[2] = system: PTK activity in RG2 cell lysate; experiment: Protein tyrosine kinase (PTK) assay; assay type: biochemical, rat; conditions: 1–50 μM (FIG. 10)
Method: A PTK assay kit (The Oncogene Research Products, Boston, Mass.) was used to determine the presence and relative amounts of protein kinase activity in tissue cytosols and cell extracts. Briefly, 1×10^4 RG2 cells seeded in a 50-mL culture flask, and allowed to achieve confluency to form a monolayer at 37° C. in a CO2 incubator.
Briefly, RG2 cells were harvested after trypsinization, and cells were pelleted by centrifugation. Cells were resuspended with extraction buffer (20 mM Tris, pH 7.4, 50 mM NaCl, 1 mM EDTA, 1 mM EGTA, 0.2 mM PMSF, 1 μg/mL pepstatin, 0.5 μg/mL leupetin, 0.2 mM Na3VO4, 5 mM mercaptoethanol, 0.1% Triton X-100), and cells were lysed using a cell homogenizer. After centrifugation, supernatant was separated from the pellet for PTK assay. The supernatant was treated with superoxide dismutase. Pervanadate (100 mM) was used in the PTK assay to inhibit […] activity, and protein concentration was determined by Lowry's method using a Bio-Rad protein assay kit. […]
Assay for PTK activity in RG2 cell-lysates was then performed according to the protocol supplied by the PTK assay kit's manufacturer. After adding the stop solution, absorbance measured in each well at 450 nm using a Spectramax Plus (Molecular Devices, Sunnyvale, Calif.).

Compound	sensitivity (cell proliferation) [1]	PTK activity [2]
Nc1cc(N2CCCCC2)nc(N)[n+]1OS(=O)(=O)[O-] [minoxidil sulfate]	insensitive	
CC(C)[C@@H]1NC(=O)[C@H](C)OC(=O)[C@@H](C(C)C)NC(=O)[C@@H](C(C)C)OC(=O)[C@H](C(C)C)NC(=O)[C@H](C)OC(=O)[C@@H](C(C)C)NC(=O)[C@@H](C(C)C)OC(=O)[C@H](C(C)C)NC(=O)[C@H](C)OC(=O)[C@@H](C(C)C)NC(=O)[C@@H](C(C)C)OC1=O [Valinomycin]		inhibited PTK activity in RG2 cell lysate in a dose-dependent manner
